According to patent US6525001B1, “Substituted pyrimidine and pyridine herbicides” (Mid-American Commercialization Corporation, priority 1997, dated 2003):

Columns and labels:
Type in all cases: in vivo
[1] = system: barnyardgrass (Echinochloa crus-galli); assay: Test C
[2] = system: johnsongrass (Sorghum halepense); assay: Test C
[3] = system: common groundsel (Senecio vulgaris); assay: Test E pre-/postemergence/post directed; parameters: key: 0 is no effect; 100 is complete control; conditions: PREEMERGENCE
Summary of the method: (§1)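 Greenhouse pot-grown plants; compound in non-phytotoxic solvent with surfactant applied preemergence to soil within one day of planting, postemergence at two to four leaf stage (three to twenty cm), or post-directed to plant base and soil. Visual injury rated 13 to 21 days after application, 0 (none) to 100 (complete control).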

[4] = system: bermudagrass (Cynodon dactylon); assay: Test E pre-/postemergence/post directed; parameters: key: 0 is no effect; 100 is complete control; conditions: PREEMERGENCE
Summary of the method: as §1

[5] = system: common ragweed (Ambrosia elatior); assay: Test E pre-/postemergence/post directed; parameters: key: 0 is no effect; 100 is complete control; conditions: PREEMERGENCE
Summary of the method: as §1

[6] = system: dallisgrass (Paspalum dilatatum); assay: Test E pre-/postemergence/post directed; parameters: key: 0 is no effect; 100 is complete control
Summary of the method: as §1

[7] = system: goosegrass (Eleusine indica); assay: Test E pre-/postemergence/post directed; parameters: key: 0 is no effect; 100 is complete control
Summary of the method: as §1

[8] = system: common purslane (Portulaca oleracea); assay: Test E pre-/postemergence/post directed; parameters: key: 0 is no effect; 100 is complete control
Summary of the method: as §1

[9] = system: guineagrass (Panicum maximum); assay: Test E pre-/postemergence/post directed; parameters: key: 0 is no effect; 100 is complete control
Summary of the method: as §1

[10] = system: tall mallow (Malva sylvestris); assay: Test E pre-/postemergence/post directed; parameters: key: 0 is no effect; 100 is complete control; conditions: PREEMERGENCE
Summary of the method: as §1

[11] = system: sourgrass (Trichachne insularis); assay: Test E pre-/postemergence/post directed; parameters: key: 0 is no effect; 100 is complete control
Summary of the method: as §1

[12] = system: surinam grass (Brachiaria decumbens); assay: Test E pre-/postemergence/post directed; parameters: key: 0 is no effect; 100 is complete control; conditions: PREEMERGENCE, Rate 250 g/ha
Summary of the method: as §1

[13] = system: large crabgrass (Digitaria sanguinalis); assay: Test E pre-/postemergence/post directed; parameters: key: 0 is no effect; 100 is complete control; conditions: PREEMERGENCE
Summary of the method: as §1

[14] = system: fall panicum (Panicum dichotomiflorum); assay: Test C; parameters: key: 0 was no effect; 100 was complete control
[15] = system: ladysthumb smartweed (Polygonum persicaria); assay: Test C
[16] = system: redroot pigweed (Amaranthus retroflexus); assay: Test C; parameters: key: 0 was no effect; 100 was complete control
[17] = system: common ragweed (Ambrosia elatior); assay: Test C
[18] = system: velvetleaf (Abutilon theophrasti); assay: Test C; parameters: key: 0 was no effect; 100 was complete control

## Cc1cnc(-c2ccc(C(F)(F)F)cc2)nc1Cn1ccc(C(F)(F)F)n1 [compound 9]
[1]; POSTEMERGENCE, Rate 35 g/ha
  Plant response rating, Barnyardgrass: 10
[1]; POSTEMERGENCE, Rate 70 g/ha
  Plant response rating, Barnyardgrass: 25
[1]; POSTEMERGENCE, Rate 140 g/ha
  Plant response rating, Barnyardgrass: 25
[1]; PREEMERGENCE, Rate 35 g/ha
  Plant response rating, Barnyardgrass: 10
[1]; PREEMERGENCE, Rate 70 g/ha
  Plant response rating, Barnyardgrass: 50
[1]; PREEMERGENCE, Rate 140 g/ha
  Plant response rating, Barnyardgrass: 50
[2]; POSTEMERGENCE, Rate 35 g/ha
  Plant response rating, Johnsongrass: 10
[2]; POSTEMERGENCE, Rate 140 g/ha
  Plant response rating, Johnsongrass: 50
[2]; PREEMERGENCE, Rate 35 g/ha
  Plant response rating, Johnsongrass: 65
[2]; PREEMERGENCE, Rate 70 g/ha
  Plant response rating, Johnsongrass: 85
[2]; PREEMERGENCE, Rate 140 g/ha
  Plant response rating, Johnsongrass: 95
[3]; Rate 64 g/ha
  Plant response rating, Com. groundsel: 100
[3]; Rate 125 g/ha
  Plant response rating, Com. groundsel: 100
[3]; Rate 250 g/ha
  Plant response rating, Com. groundsel: 100
[4]; Rate 125 g/ha
  Plant response rating, Bermudagrass: 100
[4]; Rate 250 g/ha
  Plant response rating, Bermudagrass: 100
[5]; Rate 64 g/ha
  Plant response rating, Com. ragweed: 100
[5]; Rate 250 g/ha
  Plant response rating, Com. ragweed: 100
[6]; POSTEMERGENCE, Rate 125 g/ha
  Plant response rating, Dallisgrass: 10
[6]; POSTEMERGENCE, Rate 250 g/ha
  Plant response rating, Dallisgrass: 20
[6]; PREEMERGENCE, Rate 32 g/ha
  Plant response rating, Dallisgrass: 85
[6]; PREEMERGENCE, Rate 64 g/ha
  Plant response rating, Dallisgrass: 100
[6]; PREEMERGENCE, Rate 125 g/ha
  Plant response rating, Dallisgrass: 100
[6]; PREEMERGENCE, Rate 250 g/ha
  Plant response rating, Dallisgrass: 100
[7]; POSTEMERGENCE, Rate 125 g/ha
  Plant response rating, Goosegrass: 5
[7]; POSTEMERGENCE, Rate 250 g/ha
  Plant response rating, Goosegrass: 10
[7]; PREEMERGENCE, Rate 32 g/ha
  Plant response rating, Goosegrass: 90
[7]; PREEMERGENCE, Rate 64 g/ha
  Plant response rating, Goosegrass: 100
[7]; PREEMERGENCE, Rate 125 g/ha
  Plant response rating, Goosegrass: 100
[7]; PREEMERGENCE, Rate 250 g/ha
  Plant response rating, Goosegrass: 100
[8]; POSTEMERGENCE, Rate 125 g/ha
  Plant response rating, Com. purslane: 80
[8]; POSTEMERGENCE, Rate 250 g/ha
  Plant response rating, Com. purslane: 80
[8]; PREEMERGENCE, Rate 32 g/ha
  Plant response rating, Com. purslane: 100
[8]; PREEMERGENCE, Rate 64 g/ha
  Plant response rating, Com. purslane: 100
[8]; PREEMERGENCE, Rate 125 g/ha
  Plant response rating, Com. purslane: 100
[8]; PREEMERGENCE, Rate 250 g/ha
  Plant response rating, Com. purslane: 100
[9]; POSTEMERGENCE, Rate 125 g/ha
  Plant response rating, Guineagrass: 35
[9]; POSTEMERGENCE, Rate 250 g/ha
  Plant response rating, Guineagrass: 35
[9]; PREEMERGENCE, Rate 32 g/ha
  Plant response rating, Guineagrass: 20
[9]; PREEMERGENCE, Rate 64 g/ha
  Plant response rating, Guineagrass: 85
[9]; PREEMERGENCE, Rate 125 g/ha
  Plant response rating, Guineagrass: 90
[9]; PREEMERGENCE, Rate 250 g/ha
  Plant response rating, Guineagrass: 100
[10]; Rate 32 g/ha
  Plant response rating, Tall Mallow: 100
[10]; Rate 64 g/ha
  Plant response rating, Tall Mallow: 100
[10]; Rate 125 g/ha
  Plant response rating, Tall Mallow: 100
[10]; Rate 250 g/ha
  Plant response rating, Tall Mallow: 100
[11]; POSTEMERGENCE, Rate 125 g/ha
  Plant response rating, Sourgrass: 10
[11]; POSTEMERGENCE, Rate 250 g/ha
  Plant response rating, Sourgrass: 30
[11]; PREEMERGENCE, Rate 32 g/ha
  Plant response rating, Sourgrass: 85
[11]; PREEMERGENCE, Rate 64 g/ha
  Plant response rating, Sourgrass: 100
[11]; PREEMERGENCE, Rate 125 g/ha
  Plant response rating, Sourgrass: 100
[11]; PREEMERGENCE, Rate 250 g/ha
  Plant response rating, Sourgrass: 100
[12]
  Plant response rating, Surinam grass: 100
[13]; Rate 64 g/ha
  Plant response rating, Large crabgrass: 100
[13]; Rate 125 g/ha
  Plant response rating, Large crabgrass: 100
[13]; Rate 250 g/ha
  Plant response rating, Large crabgrass: 100
[14]; POSTEMERGENCE, Rate 35 g/ha
  Plant response rating, Fall panicum: 5
[14]; POSTEMERGENCE, Rate 70 g/ha
  Plant response rating, Fall panicum: 20
[14]; POSTEMERGENCE, Rate 140 g/ha
  Plant response rating, Fall panicum: 30
[14]; PREEMERGENCE, Rate 35 g/ha
  Plant response rating, Fall panicum: 85
[14]; PREEMERGENCE, Rate 70 g/ha
  Plant response rating, Fall panicum: 90
[14]; PREEMERGENCE, Rate 140 g/ha
  Plant response rating, Fall panicum: 100
[15]; POSTEMERGENCE, Rate 35 g/ha
  Plant response rating, Ladysthumb: 20
[15]; POSTEMERGENCE, Rate 70 g/ha
  Plant response rating, Ladysthumb: 30
[15]; POSTEMERGENCE, Rate 140 g/ha
  Plant response rating, Ladysthumb: 30
[15]; PREEMERGENCE, Rate 35 g/ha
  Plant response rating, Ladysthumb: 35
[15]; PREEMERGENCE, Rate 70 g/ha
  Plant response rating, Ladysthumb: 85
[15]; PREEMERGENCE, Rate 140 g/ha
  Plant response rating, Ladysthumb: 90
[16]; POSTEMERGENCE, Rate 35 g/ha
  Plant response rating, Redroot pigweed: 60
[16]; POSTEMERGENCE, Rate 70 g/ha
  Plant response rating, Redroot pigweed: 70
[16]; PREEMERGENCE, Rate 35 g/ha
  Plant response rating, Redroot pigweed: 100
[16]; PREEMERGENCE, Rate 70 g/ha
  Plant response rating, Redroot pigweed: 100
[16]; PREEMERGENCE, Rate 140 g/ha
  Plant response rating, Redroot pigweed: 100
[17]; POSTEMERGENCE, Rate 70 g/ha
  Plant response rating, Common ragweed: 30
[17]; POSTEMERGENCE, Rate 140 g/ha
  Plant response rating, Common ragweed: 10
[17]; PREEMERGENCE, Rate 35 g/ha
  Plant response rating, Common ragweed: 80
[17]; PREEMERGENCE, Rate 70 g/ha
  Plant response rating, Common ragweed: 95
[17]; PREEMERGENCE, Rate 140 g/ha
  Plant response rating, Common ragweed: 75
[18]; POSTEMERGENCE, Rate 35 g/ha
  Plant response rating, Velvetleaf: 10
[18]; POSTEMERGENCE, Rate 70 g/ha
  Plant response rating, Velvetleaf: 70
[18]; POSTEMERGENCE, Rate 140 g/ha
  Plant response rating, Velvetleaf: 90
[18]; PREEMERGENCE, Rate 35 g/ha
  Plant response rating, Velvetleaf: 75
[18]; PREEMERGENCE, Rate 70 g/ha
  Plant response rating, Velvetleaf: 95
[18]; PREEMERGENCE, Rate 140 g/ha
  Plant response rating, Velvetleaf: 100
